The results in this text go back to US11046709B2, “Fused 1,4-diazepines as BET bromodomain inhibitors” (THE REGENTS OF THE UNIVERSITY OF MICHIGAN, priority 2017, dated 2021).

One assay deals with MDA-MB-231. Kind of assay: Cell growth inhibition, 4-day proliferation assay, MDA-MB-231. The format is cell-based. As to conditions: Homo sapiens, MDA-MB-231, 96 h, read-out: Cell IC50 (nM) MDA-MB-231. How it is done:
(§1) The effect of representative Compounds of the Disclosure on cell viability was determined in a 4-day proliferation assay. Cells were maintained in the appropriate culture medium with 100/0 FBS at 37° C. and an atmosphere of 5% CO2. All the cell lines were used within three months of thawing fresh vials.
(§2) In general, cells were seeded in 96-well flat bottom (Corning COSTAR, Corning, N.Y., cat #3595) or white opaque cell culture plates (BD Falcon, cat #353296) at a density of 3,000-10,000 cells/well in 75 μl of culture medium. Compounds were serially diluted in the appropriate medium, and 75 μl of the diluted compounds were added to the appropriate wells of the cell plate. After the addition of compounds, the cells were incubated at 37° C. in an atmosphere of 5% CO2 for 4 days. Cell viability was determined using the CellTiter-Glo® Luminescent Cell Viability Assay Kit (Promega, Madison, Wis.) for leukemia cells and WST (2-(2-methoxy-4-nitrophenyl)-3-(4-nitrophenyl)-5-(2,4-disulfophenyl)-2H-tetrazolium, monosodium salt) Cell Counting-8 Kit (Dojindo Molecular Technologies, Inc., Rockville, Md.) for adherent cells according to the manufacturers' instructions.
(§3) For WST assay (adherent cells), WST-8 reagent was added to each well at a final concentration of 10% (v/v), and then the plates were incubated at 37° C. for 1-2 hours for color development. The absorbance was measured at 450 nm using a SPECTRAmax PLUS plate reader (Molecular Devices, Sunnyvale, Calif.). The readings were normalized to the DMSO-treated cells and the half maximal inhibitory concentration (IC50) was calculated by nonlinear regression (four parameters sigmoid fitted with variable slope, least squares fit, and no constraint) analysis using the GraphPad Prism 5 software (GraphPad Software, La Jolla, Calif.).
(§4) For CellTiter-Glo assay (suspension cells), 100 μl of CellTiter-Glo® Reagent was added to each well, and then the plates were incubated at room temperature for 10-20 minutes. The luminescent signal was measured using a Tecan Infinite M1000 multimode microplate reader (Tecan, Morrisville, N.C.). The readings were normalized to the DMSO-treated cells and the IC50 was calculated by nonlinear regression (four parameters sigmoid fitted with variable slope, least squares fit, and no constraint) analysis using the GraphPad Prism 5 software. See US 2014/0256706.
(§5) For a number of representative compounds in Table 5, their IC50 values in cell growth inhibition activity in the RS4;11 and MOLM-13 human leukemia cell lines and the MDA-MB-231 breast cancer cell line were evaluated using the WST-8 assay described in EXAMPLE 7, with the data shown in Table 7.

For the next assay, the system named is MOLM-13. Description: Cell growth inhibition, 4-day proliferation assay, MOLM-13. The format is cell-based. The note with it: Homo sapiens, MOLM-13, 96 h, read-out: Cell IC50 (nM) MOLM13. How it is done:
as §1, §2, §3, §4, §5

In another assay the target is T1, recombinant BRD4 BD2 (Homo sapiens, UniProt O60885).
T1 construct: for recombinant BRD4 BD1 and BRD4 BD2 proteins
Description: Competitive fluorescence-polarization (FP) binding assay, BRD4 BD2. The procedure: Fluorescence Polarization (FP) competitive binding studies were carried out using a FAM labeled fluorescent probe, see, e.g., Cpd. No. 350 of US 2014/0256706, to determine binding affinities of representative Compounds of the Disclosure for recombinant BRD4 BD1 and BRD4 BD2 proteins. Equilibrium dissociation constants (Kd) values of the fluorescent probe to BRD4 BD1 and BD2 proteins were determined from protein saturation experiments by monitoring the total fluorescence polarization of mixtures composed with the fluorescent probe at a fixed concentration and proteins with increasing concentrations up to full saturation. Serial dilutions of testing proteins were mixed with the fluorescent probe to a final volume of 200 μl in the assay buffer (100 mM phosphate buffer, pH=6.5, 0.01% Triton X-100 (Sigma, 282103) being added right before assays). Final fluorescent probe concentration was 1.5 nM for both proteins. Plates were incubated at room temperature for 30 minutes with gentle shaking to assure equilibrium. FP values in millipolarization units (mP) were measured using the Infinite M-1000 plate reader (Tecan U.S., Research Triangle Park, N.C.) in Microfluor 1 96-well, black, round-bottom plates (Thermo Scientific, Waltham, Mass.) at an excitation wavelength of 485 nm and an emission wavelength of 530 nm. Kd values of the fluorescent probe, which were calculated by fitting the sigmoidal dose-dependent FP increases as a function of protein concentrations using Graphpad Prism 6.0 software (Graphpad Software, San Diego, Calif.), are 5.5 and 3.0 nM to BDR4 BD1 and 2, respectively.
The IC50 and Ki values of compounds were determined in a competitive binding experiment. See US 2014/0256706. Mixtures of 10 μl of the tested compounds in assay buffer with 40% Ethylene Glycol and 190 μl of preincubated protein/probe complex solution in the assay buffer (100 mM potassium phosphate, pH 6.5, 0.01% Triton X-100) were added into assay plates which were incubated at room temperature for 30 minutes with gentle shaking. Final concentrations of proteins were 10 and 6 nM in assays for BRD4 BD1 and BD2, respectively. Final probe concentration is 1.5 nM in both assays. Negative controls containing protein/probe complex only (equivalent to 0% inhibition), and positive controls containing only free probes (equivalent to 100% inhibition), were included in each assay plate. FP values were measured as described above. IC50 values were determined by nonlinear regression fitting of the competition curves. Instead of being calculated from IC50 values as described before. Ki values of competitive inhibitors were obtained directly by nonlinear regression fitting as well, based upon the Kd values of the probe to different proteins, and concentrations of the proteins and probes in the competitive assays (US 2014/0256706; Wang, FEBS Lett. 360:111 (1995); Zhang et al., Analytical Biochemistry, 331:138 (2004)).
Representative compounds in Table 5 were evaluated for their binding affinities to BRD4 BD1 and BD2 proteins using the Competitive Fluorescence-Polarization (FP) Assays described in Example 6, with the data included in Table 6.

As usually defined, the IC50 is the concentration needed to halve the response being measured. As to `Cc1c(C#Cc2ccnn2C)sc2c1C(c1ccc(Cl)cc1)=N[C@@H](C)c1nnc(C)n1-2` [Cpd. No. 17, (S)-4-(4-chlorophenyl)-3,6,9-trimethyl-2-((1-methyl-1H-pyrazol-5-yl)ethynyl)-6H-thieno[3,2-f][1,2,4]triazolo[4,3-a][1,4]diazepine], the figures for the IC50 in the assay on MDA-MB-231, in the assay with MOLM-13 and on recombinant BRD4 BD2 were 14.6 nM, 23.7 nM and 14.4 nM, respectively.

As for `Cc1c(C#CCO)sc2c1C(c1ccc(Cl)cc1)=N[C@@H](C)c1nnc(C)n1-2` [Cpd. No. 10, (S)-3-(4-(4-chlorophenyl)-3,6,9-trimethyl-6H-thieno[3,2-f][1,2,4]triazolo[4,3-a][1,4]diazepin-2-yl)prop-2-yn-1-ol], the IC50 in the assay with MDA-MB-231 amounted to 31.8 nM; in the assay on MOLM-13, 30.5 nM; on recombinant BRD4 BD2 it was 11.8 nM.

Regarding `Cc1c(C#Cc2cnn(CCCO)c2)sc2c1C(c1ccc(Cl)cc1)=N[C@@H](C)c1nnc(C)n1-2` [Cpd. No. 12, (S)-3-(4-((4-(4-chlorophenyl)-3,6,9-trimethyl-6H-thieno[3,2-f][1,2,4]triazolo[4,3-a][1,4]diazepin-2-yl)ethynyl)-1H-pyrazol-1-yl)propan-1-ol], the IC50 in the assay with MDA-MB-231 was found to be 31.5 nM; in the assay on MOLM-13 it was 3.74 nM; at recombinant BRD4 BD2 it was 10.8 nM.

`Cc1c(C#Cc2cncnc2)sc2c1C(c1ccc(Cl)cc1)=NCc1nnc(C)n1-2` [Cpd. No. 5, 4-(4-chlorophenyl)-3,9-dimethyl-2-(pyrimidin-5-ylethynyl)-6H-thieno[3,2-f][1,2,4]triazolo[4,3-a][1,4]diazepine]: the figures for the IC50 in the assay on MDA-MB-231, with MOLM-13 and at recombinant BRD4 BD2 were 214 ± 35.2 nM, 176 ± 25.5 nM and 305 nM, respectively.

Consider `Cc1c(C#Cc2cccnc2)sc2c1C(c1ccc(Cl)cc1)=NCc1nnc(C)n1-2` [Cpd. No. 3, 4-(4-chlorophenyl)-3,9-dimethyl-2-(pyridin-3-ylethynyl)-6H-thieno[3,2-f][1,2,4]triazolo[4,3-a][1,4]diazepine], for which the IC50 with MDA-MB-231 came to 151 ± 19 nM; with MOLM-13, 145 ± 13.7 nM; at recombinant BRD4 BD2, 124 nM.

For `Cc1c(C#Cc2cnn(CC(=O)O)c2)sc2c1C(c1ccc(Cl)cc1)=N[C@@H](C)c1nnc(C)n1-2` [Cpd. No. 14, (S)-2-(4-((4-(4-chlorophenyl)-3,6,9-trimethyl-6H-thieno[3,2-f][1,2,4]triazolo[4,3-a][1,4]diazepin-2-yl)ethynyl)-1H-pyrazol-1-yl)acetic acid], the figures for the IC50 with MDA-MB-231, in the assay on MOLM-13 and on recombinant BRD4 BD2 were 965 nM, 964 nM and 12.3 nM, respectively.

In the case of `Cc1c(C#CCN(C)C)sc2c1C(c1ccc(Cl)cc1)=N[C@@H](C)c1nnc(C)n1-2` [Cpd. No. 16, (S)-3-(4-(4-chlorophenyl)-3,6,9-trimethyl-6H-thieno[3,2-f][1,2,4]triazolo[4,3-a][1,4]diazepin-2-yl)-N,N-dimethylprop-2-yn-1-amine], the figures for the IC50 in the assay on MDA-MB-231, with MOLM-13 and on recombinant BRD4 BD2 were 40.9 nM, 27.9 nM and 58.9 nM, respectively.

Turning to `Cc1c(C#Cc2cncnc2)sc2c1C(c1ccc(Cl)cc1)=N[C@@H](C)c1nnc(C)n1-2` [Cpd. No. 6, (S)-4-(4-chlorophenyl)-3,6,9-trimethyl-2-(pyrimidin-5-ylethynyl)-6H-thieno[3,2-f][1,2,4]triazolo[4,3-a][1,4]diazepine], the values for the IC50 in the assay on MDA-MB-231, in the assay with MOLM-13 and on recombinant BRD4 BD2 were 17.8 ± 19 nM, 15.6 ± 1.7 nM and 16 nM, respectively.

Consider `Cc1c(C#Cc2ccncc2)sc2c1C(c1ccc(Cl)cc1)=NCc1nnc(C)n1-2` [Cpd. No. 7, 4-(4-chlorophenyl)-3,9-dimethyl-2-(pyridin-4-ylethynyl)-6H-thieno[3,2-f][1,2,4]triazolo[4,3-a][1,4]diazepine], for which the results for the IC50 in the assay on MDA-MB-231, with MOLM-13 and at recombinant BRD4 BD2 were 660 ± 83.6 nM, 144 ± 16.3 nM and 1670 nM, respectively.

On to `Cc1c(C#Cc2cn[nH]c2)sc2c1C(c1ccc(Cl)cc1)=N[C@@H](C)c1nnc(C)n1-2` [Cpd. No. 22, (S)-2-((1H-pyrazol-4-yl)ethynyl)-4-(4-chlorophenyl)-3,6,9-trimethyl-6H-thieno[3,2-f][1,2,4]triazolo[4,3-a][1,4]diazepine], for which the IC50 on recombinant BRD4 BD2 turned out to be 7.68 nM.
